Legend:
[1] = Inhibitory concentration against Protein farnesyltransferase of Trypanosoma cruzi
Trypanosoma cruzi = test: Inhibition of Trypanosoma cruzi growth; format: functional; details: read-out: ED50 (the source's name)

`Cn1cncc1[C@@](N)(c1ccc(Cl)cc1)c1ccc2c(c1)c(-c1cccc(Cl)c1)cc(=O)n2C` [TIPIFARNIB] showed an IC50 [1] of about 0.075 µM and an EC50 (Trypanosoma cruzi) of 0.004 µM.
